# Starred links: 1 amine or outer side, 2 acyl side, 3 side chain; linkers in the order of their positions; H or OH if unused. Non-standard residues stand in square brackets, D forms with d. Residues, ends and D or L forms follow the SMILES beside them. *: point of attachment. DOTA = O=C(O)CN1CCN(CC(=O)O)CCN(CC(=O)*)CCN(CC(=O)O)CC1; αMeW = C[C@](N)(Cc1c[nH]c2ccccc12)C(=O)O; Sta = CC(C)C[C@H](N)[C@@H](O)CC(=O)O; Bta = N[C@@H](Cc1csc2ccccc12)C(=O)O; Gly(cPent) = N[C@H](C(=O)O)C1CCCC1; Trx = NC[C@H]1CC[C@H](C(=O)O)CC1; X1 = O=C(CN1CCC(N[*:1])CC1)[*:2]; Chg = N[C@H](C(=O)O)C1CCCCC1; dOrn = NCCC[C@@H](N)C(=O)O; hSer = N[C@@H](CCO)C(=O)O; Nle = CCCC[C@H](N)C(=O)O; dDap = NC[C@@H](N)C(=O)O; βAla = NCCC(=O)O; Sar = CNCC(=O)O
# Test: Plasma studies: metabolic stability in vitro in human plasma (radio RP-HPLC)
# Type: in vitro ADME
# Method: Metabolic stability in vitro was determined applying a procedure published by Linder et al. that was slightly modified. Immediately after labeling, human (200 μL) or murine (100 μL) plasma was added and the mixture was incubated at 37° C. for 72±2 h (or 6±0.5 h). Proteins were precipitated by treatment with ice-cold EtOH (150 μL [human], 100 μL [murine]) and ice-cold MeCN (450 μL [human], 300 μL [murine]), followed by centrifugation for 20 min at 13000 rpm. The supernatants were decanted and further analyzed using radio RP-HPLC. […]
row,Compound,Amount of intact tracer after incubation in human plasma for 72 ± 2 h (n = 2)
1,CC(C)C[C@H](NC(=O)C[C@H](O)[C@H](CC(C)C)NC(=O)[C@H](Cc1c[nH]cn1)NC(=O)CNC(=O)[C@@H](NC(=O)[C@H](C)NC(=O)[C@H](Cc1c[nH]c2ccccc12)NC(=O)[C@H](CCO)NC(=O)[C@@H](Cc1ccccc1)NC(=O)CN1CCC(NC(=O)[C@@H](CN)NC(=O)[C@@H](CCCN)NC(=O)CN2CCN(CC(=O)O)CCN(CC(=O)O)CCN(CC(=O)O)CC2)CC1)C(C)C)C(N)=O [DOTA-orn^3-dap^4-[Hse^7]MJ9] ({DOTA}-[dOrn][dDap][X1][dF][hSer]WAVGH[Sta]L-NH2),7.9 ± 2.5
2,CC(C)C[C@H](NC(=O)C[C@H](O)[C@H](CC(C)C)NC(=O)[C@H](Cc1c[nH]cn1)NC(=O)CNC(=O)[C@@H](NC(=O)[C@H](C)NC(=O)[C@H](Cc1c[nH]c2ccccc12)NC(=O)[C@H](CCC(N)=O)NC(=O)[C@@H](Cc1ccccc1)NC(=O)CN1CCC(NC(=O)[C@@H](CN)NC(=O)[C@@H](CCCN)NC(=O)CN2CCN(CC(=O)O)CCN(CC(=O)O)CCN(CC(=O)O)CC2)CC1)C(C)C)C(N)=O [DOTA-orn^3-dap^4-MJ9] ({DOTA}-[dOrn][dDap][X1][dF]QWAVGH[Sta]L-NH2),5.9 ± 0.5
3,"CC(C)C[C@H](NC(=O)C[C@H](O)[C@H](CC(C)C)NC(=O)[C@H](Cc1c[nH]cn1)NC(=O)CNC(=O)[C@@H](NC(=O)[C@H](C)NC(=O)[C@H](Cc1csc2ccccc12)NC(=O)[C@H](CCC(N)=O)NC(=O)[C@@H](Cc1ccccc1)NC(=O)CN1CCC(NC(=O)CN2CCN(CC(=O)O)CCN(CC(=O)O)CCN(CC(=O)O)CC2)CC1)C1CCCCC1)C(N)=O [DOTA-[Bta^8, Chg^10]MJ9] ({DOTA}-[X1][dF]Q[Bta]A[Chg]GH[Sta]L-NH2)",2.5 ± 1.0
4,CC(C)C[C@H](NC(=O)C[C@H](O)[C@H](CC(C)C)NC(=O)[C@H](Cc1c[nH]cn1)NC(=O)CNC(=O)[C@@H](NC(=O)[C@H](C)NC(=O)[C@H](Cc1c[nH]c2ccccc12)NC(=O)[C@H](CCC(N)=O)NC(=O)[C@@H](Cc1ccccc1)NC(=O)[C@H]1CC[C@H](CNC(=O)CN2CCN(CC(=O)O)CCN(CC(=O)O)CCN(CC(=O)O)CC2)CC1)C(C)C)C(N)=O [DOTA-[Txa^5]MJ9],24.8 ± 0.3
5,CCCC[C@H](NC(=O)[C@H](Cc1ccccc1)NC(=O)[C@H](Cc1c[nH]cn1)NC(=O)CCNC(=O)[C@@H](NC(=O)[C@H](C)NC(=O)[C@H](Cc1c[nH]c2ccccc12)NC(=O)[C@H](CCO)NC(=O)[C@@H](Cc1ccccc1)NC(=O)CN1CCN(CC(=O)O)CCN(CC(=O)O)CCN(CC(=O)O)CC1)C(C)C)C(N)=O [DOTA-[Hse^7]UL] ({DOTA}-[dF][hSer]WAV[βAla]HF[Nle]-NH2),0.9 ± 0.9
6,"CC(C)C[C@H](NC(=O)C[C@H](O)[C@H](CC(C)C)NC(=O)[C@H](Cc1c[nH]cn1)NC(=O)CN(C)C(=O)[C@@H](NC(=O)[C@H](C)NC(=O)[C@H](Cc1c[nH]c2ccccc12)NC(=O)[C@H](CCO)NC(=O)[C@@H](Cc1ccccc1)NC(=O)CN1CCC(NC(=O)CN2CCN(CC(=O)O)CCN(CC(=O)O)CCN(CC(=O)O)CC2)CC1)C(C)C)C(N)=O [DOTA-[Hse^7, N—Me-Gly^11]MJ9] ({DOTA}-[X1][dF][hSer]WAV[Sar]H[Sta]L-NH2)",13.8 ± 0.7
7,CC(C)C[C@H](NC(=O)C[C@H](O)[C@H](CC(C)C)NC(=O)[C@H](Cc1c[nH]cn1)NC(=O)CNC(=O)[C@@H](NC(=O)[C@H](C)NC(=O)[C@H](Cc1c[nH]c2ccccc12)NC(=O)[C@H](CCC(N)=O)NC(=O)[C@@H](Cc1ccccc1)NC(=O)CN1CCC(NC(=O)CN2CCN(CC(=O)O)CCN(CC(=O)O)CCN(CC(=O)O)CC2)CC1)C1CCCCC1)C(N)=O [DOTA-[Chg^10]MJ9] ({DOTA}-[X1][dF]QWA[Chg]GH[Sta]L-NH2),8.4 ± 0.9
8,"CC(C)C[C@H](NC(=O)C[C@H](O)[C@H](CC(C)C)NC(=O)[C@H](Cc1c[nH]cn1)NC(=O)CNC(=O)[C@@H](NC(=O)[C@H](CO)NC(=O)[C@H](Cc1csc2ccccc12)NC(=O)[C@H](CCC(N)=O)NC(=O)[C@@H](Cc1ccccc1)NC(=O)CN1CCC(NC(=O)CN2CCN(CC(=O)O)CCN(CC(=O)O)CCN(CC(=O)O)CC2)CC1)C(C)C)C(N)=O [DOTA-[Bta^8, Ser^9]MJ9] ({DOTA}-[X1][dF]Q[Bta]SVGH[Sta]L-NH2)",1.5 ± 0.2
9,"CC(C)C[C@H](NC(=O)C[C@H](O)[C@H](CC(C)C)NC(=O)[C@H](Cc1c[nH]cn1)NC(=O)CNC(=O)[C@@H](NC(=O)[C@H](C)NC(=O)[C@H](Cc1csc2ccccc12)NC(=O)[C@H](CCC(N)=O)NC(=O)[C@@H](CCCNC(=N)N)NC(=O)CN1CCC(NC(=O)CN2CCN(CC(=O)O)CCN(CC(=O)O)CCN(CC(=O)O)CC2)CC1)C(C)C)C(N)=O [DOTA-[arg^6, Bta^8]MJ9] ({DOTA}-[X1][dR]Q[Bta]AVGH[Sta]L-NH2)",6.6 ± 2.0
10,"CC(C)C[C@H](NC(=O)C[C@H](O)[C@H](CC(C)C)NC(=O)[C@H](Cc1c[nH]cn1)NC(=O)CNC(=O)[C@@H](NC(=O)[C@H](C)NC(=O)[C@H](Cc1c[nH]c2ccccc12)NC(=O)[C@H](CCO)NC(=O)[C@@H](Cc1ccccc1)NC(=O)CN1CCC(NC(=O)CN2CCN(CC(=O)O)CCN(CC(=O)O)CCN(CC(=O)O)CC2)CC1)C1CCCC1)C(N)=O [DOTA-[Hse^7, Cpg^10]MJ9] ({DOTA}-[X1][dF][hSer]WA[Gly(cPent)]GH[Sta]L-NH2)",28.1 ± 2.4
11,"CC(C)C[C@H](NC(=O)C[C@H](O)[C@H](CC(C)C)NC(=O)[C@H](Cc1c[nH]cn1)NC(=O)CNC(=O)[C@@H](NC(=O)[C@H](CO)NC(=O)[C@H](Cc1c[nH]c2ccccc12)NC(=O)[C@H](CCO)NC(=O)[C@@H](Cc1ccccc1)NC(=O)CN1CCC(NC(=O)CN2CCN(CC(=O)O)CCN(CC(=O)O)CCN(CC(=O)O)CC2)CC1)C(C)C)C(N)=O [DOTA-[Hse^7, Ser^9]MJ9] ({DOTA}-[X1][dF][hSer]WSVGH[Sta]L-NH2)",14.5 ± 0.8
12,CC(C)C[C@H](NC(=O)C[C@H](O)[C@H](CC(C)C)NC(=O)[C@H](Cc1c[nH]cn1)NC(=O)CNC(=O)[C@@H](NC(=O)[C@H](C)NC(=O)[C@H](Cc1c[nH]c2ccccc12)NC(=O)[C@H](CCC(N)=O)NC(=O)[C@@H](Cc1ccccc1)NC(=O)CN1CCC(NC(=O)CN2CCN(CC(=O)O)CCN(CC(=O)O)CCN(CC(=O)O)CC2)CC1)C1CCCC1)C(N)=O [DOTA-[Cpg^10]MJ9] ({DOTA}-[X1][dF]QWA[Gly(cPent)]GH[Sta]L-NH2),25.3 ± 1.4
13,"CC(C)C[C@H](NC(=O)C[C@H](O)[C@H](CC(C)C)NC(=O)[C@H](Cc1c[nH]cn1)NC(=O)CNC(=O)[C@@H](NC(=O)[C@H](CO)NC(=O)[C@](C)(Cc1c[nH]c2ccccc12)NC(=O)[C@H](CCC(N)=O)NC(=O)[C@@H](Cc1ccccc1)NC(=O)CN1CCC(NC(=O)CN2CCN(CC(=O)O)CCN(CC(=O)O)CCN(CC(=O)O)CC2)CC1)C(C)C)C(N)=O [DOTA-[α-Me-Trp^8, Ser^9]MJ9] ({DOTA}-[X1][dF]Q[αMeW]SVGH[Sta]L-NH2)",22.1 ± 2.2
14,"CC(C)C[C@H](NC(=O)C[C@H](O)[C@H](CC(C)C)NC(=O)[C@H](Cc1c[nH]cn1)NC(=O)CNC(=O)[C@@H](NC(=O)[C@H](C)NC(=O)[C@H](Cc1csc2ccccc12)NC(=O)[C@H](CCC(N)=O)NC(=O)[C@@H](Cc1ccccc1)NC(=O)[C@H]1CC[C@H](CNC(=O)CN2CCN(CC(=O)O)CCN(CC(=O)O)CCN(CC(=O)O)CC2)CC1)C(C)C)C(N)=O [DOTA-[Txa^5, Bta^8]MJ9] ({DOTA-Trx}-[dF]Q[Bta]AVGH[Sta]L-NH2)",27.1 ± 2.1
15,"CC(C)C[C@H](NC(=O)C[C@H](O)[C@H](CC(C)C)NC(=O)[C@H](Cc1c[nH]cn1)NC(=O)CNC(=O)[C@@H](NC(=O)[C@H](C)NC(=O)[C@H](Cc1c[nH]c2ccccc12)NC(=O)[C@H](CCO)NC(=O)[C@@H](Cc1ccccc1)NC(=O)CN1CCC(NC(=O)CN2CCN(CC(=O)O)CCN(CC(=O)O)CCN(CC(=O)O)CC2)CC1)C1CCCCC1)C(N)=O [DOTA-[Hse^7, Chg^10]MJ9] ({DOTA}-[X1][dF][hSer]WA[Chg]GH[Sta]L-NH2)",33.4 ± 1.0
16,"CC(C)C[C@H](NC(=O)C[C@H](O)[C@H](CC(C)C)NC(=O)[C@H](Cc1c[nH]cn1)NC(=O)CNC(=O)[C@@H](NC(=O)[C@H](C)NC(=O)[C@H](Cc1c[nH]c2ccccc12)NC(=O)[C@H](CCO)NC(=O)[C@@H](Cc1ccccc1)NC(=O)[C@H]1CC[C@H](CNC(=O)CN2CCN(CC(=O)O)CCN(CC(=O)O)CCN(CC(=O)O)CC2)CC1)C(C)C)C(N)=O [DOTA-[Txa^5, Hse^7]MJ9] ({DOTA-Trx}-[dF][hSer]WAVGH[Sta]L-NH2)",26.7 ± 1.3
17,"CC(C)C[C@H](NC(=O)C[C@H](O)[C@H](CC(C)C)NC(=O)[C@H](Cc1c[nH]cn1)NC(=O)CNC(=O)[C@@H](NC(=O)[C@H](C)NC(=O)[C@H](Cc1csc2ccccc12)NC(=O)[C@H](CCC(N)=O)NC(=O)[C@@H](Cc1ccccc1)NC(=O)CN1CCC(NC(=O)CN2CCN(CC(=O)O)CCN(CC(=O)O)CCN(CC(=O)O)CC2)CC1)C1CCCC1)C(N)=O [DOTA-[Bta^8, Cpg^10]MJ9] ({DOTA}-[X1][dF]Q[Bta]A[Gly(cPent)]GH[Sta]L-NH2)",2.2 ± 0.5
18,CC(C)C[C@H](NC(=O)C[C@H](O)[C@H](CC(C)C)NC(=O)[C@H](Cc1c[nH]cn1)NC(=O)CNC(=O)[C@@H](NC(=O)[C@H](C)NC(=O)[C@H](Cc1c[nH]c2ccccc12)NC(=O)[C@H](CCC(N)=O)NC(=O)[C@@H](CCCNC(=N)N)NC(=O)CN1CCC(NC(=O)CN2CCN(CC(=O)O)CCN(CC(=O)O)CCN(CC(=O)O)CC2)CC1)C(C)C)C(N)=O [DOTA-[arg^6]MJ9] ({DOTA}-[X1][dR]QWAVGH[Sta]L-NH2),13.5 ± 3.4
